Measured values as given in ChEMBL document CHEMBL1255359, “Mechanisms of macrolide resistance among Streptococcus pneumoniae isolates from Russia” (2008).
Values after ≈ are worked out from the molar mass of the structure shown.

What was measured:
Type in all cases: functional
Streptococcus pneumoniae [1] = test: Antibacterial activity against macrolide resistant and mef(E)-positive Streptococcus pneumoniae by broth dilution method
Streptococcus pneumoniae [2] = test: Antibacterial activity against macrolide resistant and mef(I)-positive Streptococcus pneumoniae by broth dilution method
Streptococcus pneumoniae [3] = test: Antibacterial activity against macrolide resistant and mef-positive Streptococcus pneumoniae by broth dilution method
Streptococcus pneumoniae [4] = test: Antibacterial activity against inducible macrolide-lincosamide-streptogramin B resistant and erm(B)-positive Streptococcus pneumoniae by broth dilution method
Streptococcus pneumoniae [5] = test: Antibacterial activity against constitutive macrolide-lincosamide-streptogramin B resistant and erm(B)-positive Streptococcus pneumoniae by broth dilution method
Streptococcus pneumoniae [6] = test: Antibacterial activity against inducible macrolide-lincosamide-streptogramin B resistant erm(B) and mef(E)-positive Streptococcus pneumoniae by broth dilution method
Streptococcus pneumoniae [7] = test: Antibacterial activity against constitutive macrolide-lincosamide-streptogramin B resistant erm(B) and mef(E)-positive Streptococcus pneumoniae by broth dilution method

Structure (SMILES) | MIC (Streptococcus pneumoniae [1]) | MIC (Streptococcus pneumoniae [2]) | MIC (Streptococcus pneumoniae [3]) | MIC (Streptococcus pneumoniae [4]) | MIC (Streptococcus pneumoniae [5]) | MIC (Streptococcus pneumoniae [6]) | MIC (Streptococcus pneumoniae [7])
CCC[C@@H]1C[C@@H](C(=O)N[C@@H]([C@H]2O[C@H](SC)[C@H](O)[C@@H](O)[C@H]2O)[C@H](C)Cl)N(C)C1 [CLINDAMYCIN] | 0.015 µg/mL (≈ 0.0353 µM) | 0.015 µg/mL (≈ 0.0353 µM) | 0.03 µg/mL (≈ 0.0706 µM) | ≥ 2 µg/mL | ≥ 32 µg/mL | ≥ 32 µg/mL | ≥ 8 µg/mL
CC[C@H]1OC(=O)[C@H](C)[C@@H](O[C@H]2C[C@@](C)(OC)[C@@H](O)[C@H](C)O2)[C@H](C)[C@@H](O[C@@H]2O[C@H](C)C[C@H](N(C)C)[C@H]2O)[C@](C)(O)C[C@@H](C)C(=O)[C@H](C)[C@@H](O)[C@]1(C)O [ERYTHROMYCIN] | 1 µg/mL (≈ 1.36 µM) | 2 µg/mL (≈ 2.73 µM) | 8 µg/mL (≈ 10.9 µM) | ≥ 2 µg/mL | ≥ 32 µg/mL | ≥ 32 µg/mL | ≥ 32 µg/mL
